Consider 5 compounds from ChEMBL document CHEMBL1139187, “Hybrid molecules containing benzo[4,5]imidazo[1,2-d][1,2,4]thiadiazole and alpha-bromoacryloyl moieties as potent apoptosis inducers on human myeloid leukaemia cells” (Bioorg Med Chem Lett, 2007).

The source made the active and inactive calls. The calls are words filed in the database; no cut-off is given here.

What all share (format): functional, cell-based
The test system of test [1] is HL-60. As to the kind of experiment: Induction of apoptosis in HL60 cells assessed as caspase 3 cleavage at 3 uM by Western blot. The following applies: Homo sapiens. (In general: Immunoblotting shows a protein as a band on a membrane.)
Test [2] deals with U-937. The test is described as follows: Induction of apoptosis in U937 cells assessed as DNA fragmentation at 3 uM after 4 hrs by gel electrophoresis. The following applies: Homo sapiens.
Test [3] relates to U-937. As to the kind of experiment: Induction of apoptosis in U937 cells assessed as caspase 3 cleavage at 3 uM by Western blot. The conditions noted are these: Homo sapiens.
Test [4] has as its system HL-60. The test is described as follows: Induction of apoptosis in HL60 cells assessed as PARP cleavage at 3 uM by Western blot. The following applies: Homo sapiens.
Test [5] has as its system HL-60. The test is described as follows: Induction of apoptosis in HL60 cells assessed as DNA fragmentation at 3 uM after 4 hrs by gel electrophoresis. The conditions noted are these: Homo sapiens.
Test [6] has as its system HL-60. As to the kind of experiment: Induction of apoptosis in HL60 cells assessed as chromatin condensation at 3 uM after 4 hrs by fluorescence microscopy. The following applies: Homo sapiens.
In test [7] the test system is HL-60. The test is described as follows: Induction of apoptosis in HL60 cells assessed as morphological changes at 3 uM after 4 hrs by phase contrast microscopy. The conditions noted are these: Homo sapiens.
Test [8] has as its system HL-60. The test is described as follows: Induction of apoptosis in HL60 cells assessed as cytochrome C release at 3 uM by Western blot. The conditions noted are these: Homo sapiens.
In test [9] the test system is U-937. As to the kind of experiment: Antiproliferative activity against human U937 cells by MTT assay. On the technique in general: Formazan colour is commonly taken as a measure of viable cells.
The test system of the next test is SK-MEL-1. As to the kind of experiment: Antiproliferative activity against human SK-MEL1 cells by MTT assay.
For test [10], the system named is HL-60. As to the kind of experiment: Antiproliferative activity against HL60 cells by MTT assay. The following applies: Homo sapiens.

As usually defined, the IC50 is the concentration at which inhibition is half-maximal. As to `C=C(Br)C(=O)Nc1ccc2oc(C(=O)NCCCCCCNc3nsc4nc5ccccc5n34)cc2c1`, the result with HL-60 [1], in the test on U-937 [2], in the test with U-937 [3], with HL-60 [4], in the test on HL-60 [5] and in the test with HL-60 [6] was Active. In addition, the result in the test on HL-60 [7] and in the test on HL-60 [8] was Active. Also, the half-maximal inhibitory concentration (IC50) with U-937 [9] was found to be 740 nM; in the test with SK-MEL-1, 8950 nM; in the test on HL-60 [10] it was 1720 nM.

`C=C(Br)C(=O)Nc1ccc2c(c1)cc(C(=O)NCCCCCCNc1nsc3nc4ccccc4n13)n2C`: the outcome with HL-60 [1], in the test with U-937 [2], in the test on U-937 [3], in the test on HL-60 [4], in the test on HL-60 [5] and in the test on HL-60 [6] was Active. Also, the result in the test with HL-60 [7] and with HL-60 [8] was Active. Moreover, the IC50 came to 890 nM with U-937 [9], 4500 nM in the test with SK-MEL-1 and 840 nM with HL-60 [10].

As for `C=C(Br)C(=O)Nc1ccc2[nH]c(C(=O)NCCCCCCNc3nsc4nc5ccccc5n34)cc2c1`, the outcome in the test on HL-60 [1], in the test on U-937 [2], with U-937 [3], in the test on HL-60 [4], in the test with HL-60 [5] and with HL-60 [6] was Active. Also, the outcome with HL-60 [7] and in the test on HL-60 [8] was Active. Moreover, the IC50 came out at 400 nM with U-937 [9], 3020 nM in the test on SK-MEL-1 and 550 nM in the test on HL-60 [10].

Take `C=C(Br)C(=O)Nc1ccc2[nH]c(C(=O)NCCCNc3nsc4nc5ccccc5n34)cc2c1`: the outcome in the test on HL-60 [1], in the test with U-937 [2], in the test with U-937 [3], with HL-60 [4], with HL-60 [5] and in the test with HL-60 [6] was Active. In addition, the outcome in the test on HL-60 [7] and in the test with HL-60 [8] was Active. Further, the IC50 in the test with U-937 [9] worked out at 240 nM; in the test on SK-MEL-1, 2090 nM; with HL-60 [10], 290 nM.

For `C=C(Br)C(=O)Nc1ccc2sc(C(=O)NCCCCCCNc3nsc4nc5ccccc5n34)cc2c1`, the outcome in the test on HL-60 [1], in the test on U-937 [2], with U-937 [3], in the test on HL-60 [4], with HL-60 [5] and in the test on HL-60 [6] was Active. Moreover, the result in the test on HL-60 [7] and in the test on HL-60 [8] was Active. In addition, the figures for the IC50 in the test on U-937 [9], with SK-MEL-1 and with HL-60 [10] were 910 nM, 8040 nM and 1240 nM, respectively.
